Data: PMC11167338, “Exploring the impact of trifluoromethyl (–CF3) functional group on the anti-cancer activity of isoxazole-based molecules: design, synthesis, biological evaluation and molecular docking analysis” (RSC Advances, 2024)

Key:
MCF-7 cells [1] = assay: Cell cycle analysis (PI, flow cytometry); type: cell-based, human; conditions: MCF-7, 48 hours, at IC50 concentration
Protocol: In addition to the apoptosis assay, the cell cycle progression of MCF-7 cells was also investigated using the compound 2g. The cell population at different cell cycle phases was assessed using flow cytometry. […] These findings highlight that the lead compound 2g specifically impacts cell cycle regulation in the early phase compared to control and standard compound-treated cells (Fig. 6).
Flow cytometry was used to study the cell cycle of compound 2g and BG-45 using the BDAria™ III, a BD biosciences equipment, and the data was processed using Flow Jo software. For this objective, 5.0 × 10^4 MCF-7 cells were seeded onto 12 well plates and incubated overnight. The media was aspirated the other day, and the treatment was continued for another 48 hours after adding the required concentrations of compound 2g and BG-45 to the aspirated media. Following the treatment, the sample wells were rinsed with ice-cold PBS, trypsinized, and collected as a cell pellet. After two ice-cold PBS washes, the pellet was fixed with a dropwise addition of 70% ice-cold ethanol, which was then gently vortexed to create a single-cell suspension. Overnight, the fixed cells were stored at −20 °C. The samples were then centrifuged, and the resulting cell pellet was resuspended in 500 μL of the staining solution made from 20% w/v RNase, 2% w/v PI, and roughly 0.1% v/v Triton X 100 solution in PBS. The dissolved samples were examined using flow cytometry in the BDAria™ III, BD Biosciences, after being incubated for 30 min at room temperature in the dark.

MCF-7 cells [2] = assay: Annexin-V/FITC-PI apoptosis assay (flow cytometry); type: cell-based, human; conditions: MCF-7, 48 h, at in vitro IC50
Protocol: Several studies have reported that anticancer drug molecules employ their cytotoxicity induced cell death via apoptotic pathways. […] These findings imply that the programmed cell death mechanism generated by the lead compound 2g causes considerable apoptosis in cancer cells.
In MCF-7 cells, an apoptosis assay was done using a TACs/Annexin V kit from Biolegend, USA. MCF-7 cells were seeded with a density of 5.0 × 10^4 cells per well in a flat-bottomed 12-well plate and allowed overnight for attachment. Following media aspiration, 48 hours of treatment with compound 2g and BG-45 at their in vitro IC50 values in MCF-7 cells were performed in triplicate. The cells were then trypsinized after being rinsed twice with ice-cold PBS. The trypsinized cells were then collected, centrifuged, and the obtained cell pellet was washed with ice-cold PBS before being resuspended in 100 μL of freshly prepared Annexin V reagent, which included 10 μL of 10× binding buffer, 1 μL of FITC, 10 μL of PI, and made up to 100 μL with double distilled water. Following a 30 minutes dark incubation period, these samples were diluted to 500 μL using 400 μL of 1× binding buffer. Following incubation, the samples were examined using flow cytometry (BDAria™ III, BD biosciences).

MCF-7 = assay: MTT anti-proliferative assay on MCF-7; type: cell-based, human; conditions: for IC50: MTT, 48 hours treatment, mean ± SD (n = 2)
Protocol: (§1) All synthesized molecules were tested for their anticancer activity using the MTT assay protocol against the murine mammary carcinoma cell line (4T1), the human breast cancer (MCF-7), and the prostatic small cell carcinoma (PC-3). These compounds were then assessed for their IC50 determination at various concentrations. According to this finding, all synthesized compounds have the ability to inhibit the proliferation of a variety of cancer cell lines. […] It is more biased for MCF-7 cells over other cancer cells tested. Further, we contemplated conducting additional research to assess their anti-cancer effectiveness and mechanism (Fig. 3).
(§2) The mouse triple-negative breast cancer cell line (4T1), a human luminal A breast cancer cell line (MCF-7), a human prostate cancer cell line (PC-3), and a normal human embryonic kidney cell line (HEK-293) were procured from the National Center for Cell Science (NCCS, Pune, India). Dulbecco's Modified Eagle Medium (DMEM) (Himedia Laboratories Pvt Ltd, Mumbai, India) was used to cultivate MCF-7, 4T1, PC-3, and HEK-293 cells. All the mentioned cell lines were cultured in Dulbecco's Modified Eagle Medium (DMEM) supplemented with 10% heat-inactivated fetal bovine serum (Himedia Laboratories Pvt Ltd, Mumbai, India) and 1% antibiotic (Pen strep: A001), Himedia Laboratories Pvt Ltd, Mumbai, India. Cells were grown in a humidified environment with 5% CO2 at 37 °C. The experiment was performed using the yellow dye MTT [3-(4,5-dimethylthiazol-2-yl)-2, 5-diphenyltetrazolium bromide].
(§3) The MTT assay protocol was used to determine the IC50 values of the final compounds against different types of cancer cell lines and their selectivity over normal human cell lines. Dilutions of various concentrations were made from the compounds' DMSO stock solutions in the appropriate media. With a control solution of less than 1% DMSO in the appropriate media, dilutions from 200 μM to 0.781 μM concentrations were prepared using the serial dilution method. Cells were subcultured in their respective complete media according to the ATCC protocol before being seeded on a sterile 96-well plate with around 100 μL per well and a cell density of about 1 × 10^4 cells per well and incubated overnight. The medium was aspirated the following day, and adherent cells were treated with the respective concentrations 200 μM to 0.781 μM. The cells were then cultured for 48 hours in presence of compounds in the growth medium. The medium was aspirated post-treatment, and 100 μL of a 5 mg mL^−1 MTT solution in phenol red-free media was added. This mixture was then incubated for around 3 hours to check for the production of formazan crystals. The MTT solution was withdrawn, and 150 μL of DMSO was added to the wells to dissolve the generated crystals. The absorbance was measured at 570 nm and 650 nm. The percent cell viability was calculated for the IC50 values using GraphPad Prism™ version 8.0.1, and the results were shown as a dose–response curve.

HEK-293 = assay: MTT cytotoxicity on normal HEK-293 cells; type: cell-based; conditions: Homo sapiens, HEK293, normal cell line, 48 hours treatment, mean ± SD (n = 2)
Text: We also investigated their in vitro cytotoxicity against a normal human embryonic kidney (HEK-293) cell line to determine their IC50.
as §2, §3

PC-3 = assay: MTT anti-proliferative assay on PC-3; type: cell-based, human; conditions: for IC50: Homo sapiens, PC-3, MTT, 48 hours treatment, mean ± SD (n = 2)
Protocol: as §1, §2, §3

4T1 = assay: MTT anti-proliferative assay on 4T1; type: cell-based, mouse; conditions: for IC50: Mus musculus, 4T1, MTT, 48 hours treatment, mean ± SD (n = 2)
Protocol: as §1, §2, §3

MCF-7 cells [3] = assay: Intracellular ROS generation (DCFH-DA); type: cell-based, human; conditions: for Fluorescence intensity (DCFH-DA, ImageJ): MCF-7, 48 h, IC50 dose
Text: This can result from the increased metabolic demands of rapidly dividing cancer cells and mitochondrial dysfunction. Elevated ROS levels can also damage DNA, contributing to genomic instability and the development of genetic mutations that drive cancer progression. Chemotherapy drugs, for example, can generate ROS as a byproduct of their mechanism of action, causing increase DNA damage and cell death in cancer cells. As a result, we investigated whether the compound 2g could cause ROS production within cancer cells.
The generation of reactive oxygen species in MCF-7 cells was investigated using the 2-7-dichlorodihydroflourescein diacetate (DCFH-DA) assay. The non-fluorescent DCFH-DA enters the cells, where cellular esterase cleaves off the acetyl groups to produce DCFH. ROS transform the molecule from DCFH to DCF, which produces green light. […] Following incubation, old medium was removed, and cells were treated with 10 μM DCFH-DA (S0033-Beyotime) in accordance with the recommended technique for 10 min at 37 °C in complete darkness. The intensity of fluorescence was then measured with a Laser Scanning Confocal Microscope (LSCM) DMI8 (Leica Microsystems, Germany) at 63× magnification at 485 nm and 535 nm for excitation and emission wavelengths. […] In the meantime, the increase in fluorescence intensity was determined in comparison to the control. Image J was used to calculate the relative fluorescence intensity (%). One-way ANOVA was used to determine significance, and the graph was created in GraphPad Prism™ version 8.0.1.

MCF-7 cells [4] = assay: Nuclear staining assay (DAPI and AO); type: cell-based, human; conditions: MCF-7, IC50, 48 hours, compared to control and BG-45
Protocol: A nuclear staining assay was done using DAPI and AO as staining dyes to evaluate the phenomena of apoptosis in cancer cells under a laser scanning confocal microscope (LSCM). […] The fluorescence pattern in AO staining changed from green (normal cellular DNA) to orange (nicked cellular DNA).
To measure the degree of cancer cell disintegration, a nuclear staining experiment was performed in MCF-7 cells using the lead compound 2g and the reference compound BG-45. […] The 12-well plate was incubated for 48 hours after treatment. The cells were fixed with 4% paraformaldehyde and then stained with DAPI and acridine orange. The degree of nuclear staining was examined using a Laser Scanning Confocal Microscope (LSCM) DMI8 (Leica Microsystems, Germany) at 63× magnification. Image J was used to calculate the percentage apoptosis. One-way ANOVA was used to determine significance, and the graph was plotted in GraphPad Prism™ version 8.0.1.

Row | IC50 (MCF-7; Homo sapiens, MCF7, 48 h) | IC50 (MCF-7) | IC50 (PC-3) | IC50 (4T1) | melting point | Compound | cell population in G0/G1 phase (MCF-7 cells [1]) | cell population in G2/M phase (MCF-7 cells [1]) | cell population in S phase (MCF-7 cells [1]) | total apoptotic percentage (Q2 and Q4) (MCF-7 cells [2]) | IC50 (HEK-293) | Fluorescence intensity (DCFH-DA, ImageJ) (MCF-7 cells [3]) | nuclear morphology by DAPI and AO staining (MCF-7 cells [4]) | times more active than non-trifluoromethylated analogue 14 (MCF-7; MCF-7 IC50 compared) | selectivity for MCF-7 cells over HEK-293 (MCF-7; ratio of IC50 values) | selectivity for other cancer cell lines over HEK-293 (PC-3; second value, fits PC-3 by ratio of Table 1 IC50) | selectivity for other cancer cell lines over HEK-293 (4T1; first value, fits 4T1 by ratio of Table 1 IC50) | relative fluorescence intensity compared to the control (MCF-7 cells [3]; MCF-7, IC50 dose)
1 | 43.6 µM | 43.55 ± 0.18 µM | 28.67 ± 0.14 µM | 59.14 ± 0.17 µM | – | Nc1ccccc1NC(=O)c1cnccn1 [BG-45, reference compound] | 63.6% | 24.4% | 14.2% | 16.4 ± 1.1% | 144.56 ± 0.14 µM | 18.02 | – | – | – | – | – | –
2 | 11.3 µM | 11.3 ± 0.13 µM | 16.14 ± 0.15 µM | 37.83 ± 0.2 µM | 60 to 65 °C | FC(F)(F)c1c(-c2ccccc2)noc1-c1ccccc1 [Compound 2a] | – | – | – | – | 114.9 ± 0.15 µM | – | – | – | – | – | – | –
3 | 9.76 µM | 9.76 ± 0.09 µM | 13.6 ± 0.17 µM | 35.36 ± 0.19 µM | 65 to 69 °C | FC(F)(F)c1c(-c2cccs2)noc1-c1ccccc1 [Compound 2b] | – | – | – | – | 103.3 ± 0.17 µM | – | – | – | – | – | – | –
4 | 8.19 ± 0.12 µM | – | 11.7 ± 0.16 µM | 28.78 ± 0.19 µM | – | FC(F)(F)c1c(-c2ccccc2)noc1-c1cccs1 [Compound 2c] | – | – | – | – | 98.76 ± 0.24 µM | – | – | – | – | – | – | –
5 | 10.6 ± 0.19 µM | – | 15.59 ± 0.14 µM | 37.18 ± 0.22 µM | – | FC(F)(F)c1c(-c2cccc3ccccc23)noc1-c1cccs1 [Compound 2d] | – | – | – | – | 111.8 ± 0.17 µM | – | – | – | – | – | – | –
6 | 5.48 µM | 5.48 ± 0.14 µM | 11.6 ± 0.14 µM | 23.5 ± 0.21 µM | 66 to 70 °C | FC(F)(F)c1c(-c2cccs2)noc1-c1ccco1 [Compound 2e] | – | – | – | – | 94.55 ± 0.2 µM | – | – | – | – | – | – | –
7 | 5.32 µM | 5.32 ± 0.19 µM | 10.3 ± 0.15 µM | 18.12 ± 0.15 µM | – | FC(F)(F)c1c(-c2ccco2)noc1-c1cccs1 [Compound 2f] | – | – | – | – | 86.98 ± 0.23 µM | – | – | – | – | – | – | –
8 | 2.64 µM | 2.63 ± 0.15 µM | 7.16 ± 0.18 µM | 8.75 ± 0.09 µM | – | COc1ccc(-c2noc(-c3cccs3)c2C(F)(F)F)cc1OC [Compound 2g, 3-(3,4-dimethoxyphenyl)-5-(thiophen-2-yl)-4-(trifluoromethyl)isoxazole] | 68.6% | 31.5% | 1.11% | 55.3 ± 0.9% | 81.2 ± 0.17 µM | 31.63 | notable variation in cell shape and morphology | ~8 times | 30.8 fold | 11.3 fold | 9.2 fold | considerable increase
9 | 13.7 µM | 13.71 ± 0.13 µM | 17.99 ± 0.13 µM | 44.36 ± 0.2 µM | – | FC(F)(F)c1c(-c2cccs2)noc1/C=C/c1cccs1 [Compound 4, (E)-3-(thiophen-2-yl)-5-(2-(thiophen-2-yl)vinyl)-4-(trifluoromethyl)isoxazole] | – | – | – | – | 122 ± 0.16 µM | – | – | – | – | – | – | –
10 | 3.09 µM | 3.09 ± 0.11 µM | 9.56 ± 0.18 µM | 14.96 ± 0.13 µM | – | FC(F)(F)c1c(-c2cccs2)noc1-c1c[nH]cc1-c1cccs1 [Compound 5, 3-(thiophen-2-yl)-5-(4-(thiophen-2-yl)-1H-pyrrol-3-yl)-4-(trifluoromethyl)isoxazole] | – | – | – | – | 84.86 ± 0.19 µM | – | – | – | – | – | – | –
11 | 13 µM | 13.03 ± 0.13 µM | 17.42 ± 0.17 µM | 41.58 ± 0.21 µM | – | c1ccc(-c2cc(-c3ccccc3)on2)cc1 [Compound 7, 3,5-diphenylisoxazole] | – | – | – | – | 118.7 ± 0.21 µM | – | – | – | – | – | – | –
12 | 10 µM | 9.99 ± 0.1 µM | 14.5 ± 0.17 µM | 36.24 ± 0.2 µM | – | c1ccc(-c2cc(-c3cccs3)on2)cc1 [Compound 9, 3-phenyl-5-(thiophen-2-yl)isoxazole] | – | – | – | – | 109.3 ± 0.19 µM | – | – | – | – | – | – | –
13 | 19.72 ± 0.16 µM | – | 30.21 ± 0.22 µM | 48.39 ± 0.19 µM | – | COc1ccc(-c2cc(-c3cccs3)on2)cc1OC [Compound 14, 3-(3,4-dimethoxyphenyl)-5-(thiophen-2-yl)isoxazole, reference compound] | – | – | – | – | 131.5 ± 0.13 µM | – | – | – | – | – | – | –
